Measured values as given in publication PMC7263517 (bioRxiv, 2020).
Read-outs that look alike come from different tables or passages of the source.

Assays:
[1] = system: influenza virus; details: read-out: EC90 influenza virus growth in cell culture; cited from earlier work
[2] = target: A/WSN/33 (H1N1) influenza virus FluPol (Influenza A virus, UniProt P03430); test: biochemical; assay type: biochemical, influenza A/WSN/33 (H1N1) virus
[3] = target: SARS-CoV-2 nsp7/8/12 complex (Severe acute respiratory syndrome coronavirus 2, UniProt P0DTD1); test: SARS-CoV-2 nsp7/8/12 in vitro activity assay; assay type: biochemical
[4] = target: FluPol (Influenza A virus, UniProt P03430); assay type: biochemical, influenza A/WSN/33 (H1N1) virus
Sequence of FluPol (P03430 whole entry, looked up): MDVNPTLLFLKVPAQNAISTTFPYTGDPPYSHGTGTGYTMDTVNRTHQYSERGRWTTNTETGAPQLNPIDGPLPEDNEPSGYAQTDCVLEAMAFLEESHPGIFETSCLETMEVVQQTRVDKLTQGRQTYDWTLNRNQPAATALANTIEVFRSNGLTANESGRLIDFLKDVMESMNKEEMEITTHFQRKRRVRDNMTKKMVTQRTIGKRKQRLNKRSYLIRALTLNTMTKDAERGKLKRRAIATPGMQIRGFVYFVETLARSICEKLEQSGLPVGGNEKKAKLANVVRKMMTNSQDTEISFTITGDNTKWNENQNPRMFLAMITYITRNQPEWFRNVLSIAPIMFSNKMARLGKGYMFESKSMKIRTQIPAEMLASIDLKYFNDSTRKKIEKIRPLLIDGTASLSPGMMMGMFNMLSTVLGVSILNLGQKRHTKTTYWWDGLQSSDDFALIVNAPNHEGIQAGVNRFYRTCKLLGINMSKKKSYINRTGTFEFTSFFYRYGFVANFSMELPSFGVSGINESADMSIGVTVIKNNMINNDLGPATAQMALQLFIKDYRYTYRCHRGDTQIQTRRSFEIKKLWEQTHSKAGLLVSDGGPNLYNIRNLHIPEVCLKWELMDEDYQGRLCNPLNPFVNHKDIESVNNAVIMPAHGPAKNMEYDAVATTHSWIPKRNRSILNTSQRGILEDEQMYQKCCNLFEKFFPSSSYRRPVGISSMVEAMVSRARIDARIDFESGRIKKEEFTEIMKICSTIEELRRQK

Sequence of A/WSN/33 (H1N1) influenza virus FluPol (P03430 whole entry, looked up): as above

For `C[n+]1ccc(C(=O)NCc2ccccc2)cc1` [enisamium, 4-(benzylcarbamoyl)-1-methylpyridinium], the EC90 [1] is listed as 0.157 to 0.439 mM.
In the case of `O=C(NCc1ccc(O)cc1)c1ccncc1` [VR18-03, N-[(4-hydrophenyl)methyl]pyridine-4-carboxamide], the “FOLD CHANGE IC50” value [2] is reported as 0.6 and the IC50 ([2]; read-out: FLUPOL IC50) is reported as 74 mM.
For `C[n+]1ccc(C(=O)NCc2ccccc2O)cc1` [VR16-01, 4-{[(2-hydroxyphenyl)methyl]carbamoyl}-1-methylpyridin-1-ium], the “FOLD CHANGE IC50” value [2] was 0.6 and the IC50 ([2]; read-out: FLUPOL IC50) was 78.2 mM.
For `C[n+]1ccc(C(=O)NCc2ccccc2)cc1` [FAV00A, N-methyl-4-benzylcarbamidopyridinium iodide, reference compound], the IC50 [3] was 40.7 mM, the “FOLD CHANGE IC50” value [2] was 1 and the IC50 [2] was 46.3 mM. The “inhibition of FluPol activity by cellular extract” value [4] was “strong, concentration-dependent inhibition”.
In the case of `O=C(NCc1ccccc1)c1cc[nH]c(=O)c1` [VR18-04, N-benzyl-2-oxo-1,2-dihydropyridine-4-carboxamide], the “FOLD CHANGE IC50” value [2] is reported as 1.3 and the IC50 [2] is reported as 35.2 mM.
In the case of `O=C(NCc1ccccc1O)c1ccncc1` [VR18-01, N-[(2-hydrophenyl)methyl]pyridine-4-carboxamide], the “FOLD CHANGE IC50” value [2] is reported as 1.4 and the IC50 ([2]; read-out: FLUPOL IC50) is reported as 34.2 mM.
With `NC(=O)c1nc(F)cn([C@@H]2O[C@H](COP(=O)(O)OP(=O)(O)OP(=O)(O)O)[C@@H](O)[C@H]2O)c1=O` [T-705 triphosphate, 6-fluoro-3,4-dihydro-4-[5-O-(hydroxy{[hydroxy(phosphonooxy)phosphinyl]oxy}phosphinyl)-β-d-ribofuranosyl]-3-oxo-2-pyrazinecarboxamide, reference compound] the “IC50 SARS-CoV-2 nsp7/8/12 RNA synthesis activity” value ([3]; in vitro, 30 mins, VR17-04 value estimated from the dose-response curve) was “non-inhibitory” and the IC50 [2] was 0.011 mM.
With `O=C(NCc1cccc(O)c1)c1ccncc1` [VR18-02, N-[(3-hydrophenyl)methyl]pyridine-4-carboxamide] the “FOLD CHANGE IC50” value [2] was 0.5 and the IC50 ([2]; read-out: FLUPOL IC50) was 94.8 mM.
